Laboratory results reported in PubChem BioAssay AID1963867 (Molecular Pharmacology Branch, DTP, NCI, 2024).

Test system: KRAS-mutant PDC tumor spheroid with HUVEC/MSC, viability
Experiment: Anticancer human tumor 327498-153-R-J2-PDC patient-derived uterine carcinosarcoma cell line growth inhibition [KRAS2]
Conditions: for IC50: curve of first compound; for viability, T/C: stronger effect = lower value
Procedure, shortened: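 KRAS-mutant tumor cells were grown as spheroids with HUVEC endothelial cells and human MSCs as stroma. Targeted agents were tested alone and with KRAS pathway inhibitors. Doses started at or near clinical Cmax, or 10 microM, descending half-log.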
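Further: spheroids exposed to agents for seven days before reading.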
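Wherever viability, T/C is given: 100% = DMSO vehicle wells so lower means fewer viable cells.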

`Cn1nccc1Nc1nccc(-c2cc3c(s2)C(C)(C)N(CCN2CCOCC2)C3=O)n1` + C=CC(=O)N1CCN(c2nc(=O)n(-c3c(C)ccnc3C(C)C)c3nc(-c4c(O)cccc4F)c(F)cc23)C(C)C1 showed an IC50 (second compound 0.1 µM) of 1.4 µM, an IC50 (second compound 0.316 µM) of 2.24 µM and an IC50 (second compound 1 µM) of 3.12 µM. It also gave an IC50 (second compound 3.16 µM) of 0.925 µM, an IC50 (second compound 10 µM) of under 0.0316 µM and a viability, T/C (second compound 0.1 µM, first compound 0.0316 µM) of 60.7%. It also gave a viability, T/C (second compound 0.1 µM, first compound 0.1 µM) of 61.5%, a viability, T/C (second compound 0.1 µM, first compound 0.316 µM) of 55.8% and a viability, T/C (second compound 0.1 µM, first compound 1 µM) of 54.8%. The viability, T/C (second compound 0.1 µM, first compound 3.16 µM) was 41.8%, the viability, T/C (second compound 0.1 µM, first compound 10 µM) was 36.5% and the viability, T/C (second compound 0.316 µM, first compound 0.0316 µM) was 55.7%. The viability, T/C (second compound 0.316 µM, first compound 0.1 µM) was 63.8%, the viability, T/C (second compound 0.316 µM, first compound 0.316 µM) was 55.1% and the viability, T/C (second compound 0.316 µM, first compound 1 µM) was 54%. For the same compound, the viability, T/C (second compound 0.316 µM, first compound 3.16 µM) was 46.6%, the viability, T/C (second compound 0.316 µM, first compound 10 µM) was 42.2% and the viability, T/C (second compound 1 µM, first compound 0.0316 µM) was 63%. It also gave a viability, T/C (second compound 1 µM, first compound 0.1 µM) of 56.3%, a viability, T/C (second compound 1 µM, first compound 0.316 µM) of 60.9% and a viability, T/C (second compound 1 µM, first compound 1 µM) of 55.2%. The viability, T/C (second compound 1 µM, first compound 3.16 µM) was 49.1%, the viability, T/C (second compound 1 µM, first compound 10 µM) was 42.4% and the viability, T/C (second compound 3.16 µM, first compound 0.0316 µM) was 60.5%. It also gave a viability, T/C (second compound 3.16 µM, first compound 0.1 µM) of 59.3%, a viability, T/C (second compound 3.16 µM, first compound 0.316 µM) of 50.8% and a viability, T/C (second compound 3.16 µM, first compound 1 µM) of 49.6%. For the same compound, the viability, T/C (second compound 3.16 µM, first compound 3.16 µM) was 48.3%, the viability, T/C (second compound 3.16 µM, first compound 10 µM) was 40.5% and the viability, T/C (second compound 10 µM, first compound 0.0316 µM) was 49.9%. For the same compound, the viability, T/C (second compound 10 µM, first compound 0.1 µM) was 47.8%, the viability, T/C (second compound 10 µM, first compound 0.316 µM) was 45.3% and the viability, T/C (second compound 10 µM, first compound 1 µM) was 37.7%. For the same compound, the viability, T/C (second compound 10 µM, first compound 3.16 µM) was 41.1% and the viability, T/C (second compound 10 µM, first compound 10 µM) was 29.3%.
